Results: patent US6730521B1, “Chemical and biochemical assay method and apparatus” (The Technology Partnership PLC, priority 1999, dated 2004)

Target: T1, streptavidin (Streptomyces avidinii, UniProt P22629)
T1 construct: purchased Dynal
Assay: FITC-biotin binding to a single streptavidin-coated bead in a scanned droplet
Conditions: 5 μl of 48 nM FITC-biotin plus 5 μl buffer with a single 2.8 μm streptavidin bead; equilibrium after 30 minutes
Procedure: A 5 μl sample of a solution of 48 nM fluorescein isothiocyanate-labelled biotin (FITC-biotin) is added to 5 μl of a solution of buffer containing a single 2.8 μm diameter bead coated with streptavidin (obtained from Dynal). The sample was presented to the instrument for scanning as a 10 μl droplet on the surface of a glass microscope slide. Illumination and light collection was arranged from above the sample. The instrument was set to take fluorescent intensity measurements at 1 μm intervals across the sample in the x-direction with a line-to-line step of 2.2 μm in the y-direction. As the laser spot size was 6 μmm, this allowed for overlap between each scan line. The graphs plot the relative intensity (analogue-to-digital converter or ADC counts) against position (sample number) for several adjacent scan lines. Initially, the FITC-biotin has had insufficient time to diffuse to the streptavidin sites concentrated on the bead. The sample was scanned at intervals over the period of the experiment. It can be readily appreciated that the signal obtained from the illumination will be proportional to the number of molecules of label (FITC-biotin) in the path of the laser at each point. If, as in this case, the label is homogenous throughout the droplet then the signal at each point is proportional to the path length of the laser through the sample. […]

T1 sequence (P22629 25-183): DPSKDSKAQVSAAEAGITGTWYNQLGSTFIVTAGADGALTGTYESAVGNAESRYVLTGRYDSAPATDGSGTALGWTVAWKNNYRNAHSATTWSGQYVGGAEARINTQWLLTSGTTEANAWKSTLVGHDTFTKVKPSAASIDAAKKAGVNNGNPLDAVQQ

fluorescein isothiocyanate-labelled biotin [FITC-biotin]
PVS/UVS signal ratio at equilibrium: approx. 6.1
